The record followed here is patent US20100120789A1, “Compound” (priority 2005, published 2010).

Test [1] has as its target T1, Human 11β-HSD1 (Homo sapiens, UniProt P28845). Description: 11β-HSD1 HTRF assay (human liver microsome fractions, cortisol by HTRF). As to conditions: 10 μM compound; human liver microsomes. Format: biochemical. As for the experimental part: 11β-HSD1 HTRF Assay Protocol
The 11β-HSD Type 1 assay was carried out at room temperature in 96 well microtitre plates in a total volume of 40 μl. Assay buffer contained 30 mM Tris.HCl, 1 mM EDTA, pH 7.2. Inhibitor compounds were tested at varying concentrations at a final Dimethyl Sulphoxide concentration of 1%. Compounds were usually tested at 10 μM. The substrate mixture contained cortisone, NADPH and glucose-6-phosphate at final concentrations of 1 μM, 180 μM and 1 mM respectively. Assays were started by the addition of 10p1 human liver microsome fractions, 20 mg per ml protein, containing 11β-HSD Type 1, diluted 1 to 40 prior to use. Following mixing microtitre plates were shaken for 30 minutes. Reactions were stopped by the addition of 10 μl 1 mM Glyccheritinnic acid solution. Production of Cortisol was measured by Homogenous Time Resolved Fluorescence using a cortisol assay kit; Cisbio International Cortisol HTRF kit (62CORPEB), following the manufacturer's protocol.
(In general: Time-resolved FRET reads energy transfer from a long-lived donor to a nearby acceptor.)

Test [2] addresses T1, Human 11β-HSD1. Description: 11β-HSD1 HEK assay (whole HEK 293 cells stably transfected with HSD11B1, SPA). The arrangement: expressed in transfected cells; host or cells: HEK 293. The class given is cell-based. The following applies: HEK293, read-out: % INHIBITION of Human 11 β-HSD1 at 10 μM (HEK). The protocol:
11β-HSD1 HEK Assay Protocol (Cell Based Assay)
11β-HSD1 activity is measured in whole HEK 293 cells stably transfected with the HSD11B1 gene. Cells are incubated in 96-well microplates in the presence of tritiated substrate. Enzyme activity is determined by measuring the amount of tritated product by scintillation proximity assay (SPA). Assay plates contain internal high and low controls to allow calculation of percentage inhibition.
2. When the cells are 80% confluent the medium is removed from each well. 100 μl fresh, serum-free, medium containing ^3H-cortisone and test compound in 1% DMSO is added to each well*. Control wells are also dispensed.
3. The plate is incubated at […] for the required time period.
4. 50 μl of media is removed from each well and transferred to a microplate containing 100 μl of a pre-incubated mixture of anti-cortisol antibody and SPA bead. The mixture is incubated with gentle shaking until equilibrium is reached, before transferring to a scintillation counter to establish the enzyme activity in each sample.
10 μl of compound is dispensed into each well of a 96-well microplate in 10% DMSO at 100 μM concentration. 90 μl media containing ^3H-cortisone is added to each well. The compound/media/substrate mixture is then transferred to the assay plate containing the cells.

T1 sequence (P28845 whole entry): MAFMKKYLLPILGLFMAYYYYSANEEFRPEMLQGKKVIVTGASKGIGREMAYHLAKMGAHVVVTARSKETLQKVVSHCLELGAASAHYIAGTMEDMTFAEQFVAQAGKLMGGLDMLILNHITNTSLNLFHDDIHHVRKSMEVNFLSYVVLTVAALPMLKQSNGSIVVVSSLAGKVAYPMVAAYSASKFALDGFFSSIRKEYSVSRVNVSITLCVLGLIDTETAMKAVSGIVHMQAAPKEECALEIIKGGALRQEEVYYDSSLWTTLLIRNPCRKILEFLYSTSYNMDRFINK

Regarding `O=S(=O)(NC12CC3CC(CC(C3)C1)C2)c1cccs1` [compound 1573], the inhibition (in general, the percentage by which the read-out fell short of the control) at 10 µM on Human 11β-HSD1 [1] is above 60%.

In the case of `Cc1ccc(-c2noc(C34CC5CC(CC(C5)C3)C4)n2)cc1` [compound 1599], the inhibition at 10 µM at Human 11β-HSD1 [1] and on Human 11β-HSD1 [2] was 20 to 60% each time.

As for `O=C(CS(=O)(=O)Cc1ccc(Cl)cc1)C12CC3CC(CC(C3)C1)C2` [compound 1632], the inhibition at 10 µM at Human 11β-HSD1 [1] and at Human 11β-HSD1 [2] was above 60% each time.

On to `CC(=O)Nc1ccc(OCC(=O)C23CC4CC(CC(C4)C2)C3)cc1` [compound 1569], for which the inhibition at 10 µM against Human 11β-HSD1 [1] and at Human 11β-HSD1 [2] was above 60% in each case.

For the compound `O=C(NCCCn1ccnc1)C12CC3CC(CC(C3)C1)C2` [compound 1580], the inhibition at 10 µM on Human 11β-HSD1 [1] and on Human 11β-HSD1 [2] was 20 to 60% in each case.

As for `O=C(NCc1cccnc1)C12CC3CC(CC(C3)C1)C2` [compound 1542], the inhibition at 10 µM against Human 11β-HSD1 [1] and at Human 11β-HSD1 [2] was above 60% each time.

Consider `O=C(COCc1ccc(Cl)cc1)C12CC3CC(CC(C3)C1)C2` [compound 1626], for which the inhibition at 10 µM at Human 11β-HSD1 [1] was above 60%; on Human 11β-HSD1 [2] it was 20 to 60%.

Take `CCCc1ccc(S(=O)(=O)NC23CC4CC(CC(C4)C2)C3)cc1` [compound 1341]: the inhibition at 10 µM against Human 11β-HSD1 [1] and on Human 11β-HSD1 [2] was 20 to 60% throughout.

Take `O=S(=O)(Cc1ccc(Cl)cc1)NC12CC3CC(CC(C3)C1)C2` [compound 1499]: the values for the inhibition at 10 µM at Human 11β-HSD1 [1] and on Human 11β-HSD1 [2] were 20 to 60% and below 20%, respectively.

For `O=C(CNc1ccc(Cl)cc1)C12CC3CC(CC(C3)C1)C2` [compound 1535], the inhibition at 10 µM at Human 11β-HSD1 [1] and on Human 11β-HSD1 [2] was above 60% in each case.

For the compound `O=C(NCc1cccs1)C12CC3CC(CC(C3)C1)C2` [compound 1374], the inhibition at 10 µM on Human 11β-HSD1 [1] and at Human 11β-HSD1 [2] was above 60% each time.

Turning to `Cc1cnc(CNC(=O)C23CC4CC(CC(C4)C2)C3)cn1` [compound 1545], the inhibition at 10 µM against Human 11β-HSD1 [1] was above 60%; on Human 11β-HSD1 [2], 20 to 60%.

As for `O=C(NCCc1cccnc1)C12CC3CC(CC(C3)C1)C2` [compound 1543], the inhibition at 10 µM was above 60% at Human 11β-HSD1 [1] and below 20% on Human 11β-HSD1 [2].

In the case of `O=C(CSc1cc(Cl)ccc1Cl)C12CC3CC(CC(C3)C1)C2` [compound 1538], the inhibition at 10 µM at Human 11β-HSD1 [1] and at Human 11β-HSD1 [2] was above 60% in each case.

On to `O=C(NCCc1c[nH]c2ccccc12)C12CC3CC(CC(C3)C1)C2` [compound 1581], for which the inhibition at 10 µM against Human 11β-HSD1 [1] and at Human 11β-HSD1 [2] was above 60% in each case.

Take `O=C(CSCc1ccc(Cl)cc1)C12CC3CC(CC(C3)C1)C2` [compound 1621]: the inhibition at 10 µM at Human 11β-HSD1 [1] and on Human 11β-HSD1 [2] was above 60% each time.

`O=C(CC12CC3CC(CC(C3)C1)C2)NCc1ccccn1` [compound 1565]: the inhibition at 10 µM was above 60% against Human 11β-HSD1 [1] and 20 to 60% on Human 11β-HSD1 [2].

On to `O=S(=O)(NCC12CC3CC(CC(C3)C1)C2)c1cccs1` [compound 1575], for which the inhibition at 10 µM at Human 11β-HSD1 [1] was above 60%; at Human 11β-HSD1 [2], below 20%.

As to `CN1CCCC1CCNC(=O)C12CC3CC(CC(C3)C1)C2` (centres unmarked) [compound 1597], the inhibition at 10 µM against Human 11β-HSD1 [1] was above 60%; on Human 11β-HSD1 [2], below 20%.

Regarding `Cc1nc2c(Cl)c(NC(=O)C34CC5CC(CC(C5)C3)C4)ccc2s1` [compound 1373], the inhibition at 10 µM is 20 to 60% at Human 11β-HSD1 [1] and above 60% at Human 11β-HSD1 [2].

For `Cc1ccc(OCC(=O)C23CC4CC(CC(C4)C2)C3)cc1` [compound 1619], the inhibition at 10 µM at Human 11β-HSD1 [1] and on Human 11β-HSD1 [2] was above 60% throughout.

On to `O=C(CS(=O)(=O)c1ccc(Cl)cc1)C12CC3CC(CC(C3)C1)C2` [compound 1539], for which the inhibition at 10 µM against Human 11β-HSD1 [1] was above 60%; on Human 11β-HSD1 [2] it was 20 to 60%.

For the compound `Cn1cnc(CNC(=O)C23CC4CC(CC(C4)C2)C3)c1` [compound 1577], the inhibition at 10 µM at Human 11β-HSD1 [1] and at Human 11β-HSD1 [2] was above 60% in each case.

Regarding `O=S(=O)(NC1C2CC3CC(C2)CC1C3)c1cccs1` (centres unmarked) [compound 1574], the inhibition at 10 µM against Human 11β-HSD1 [1] is above 60%; on Human 11β-HSD1 [2] it was 20 to 60%.

As to `O=C(CC12CC3CC(CC(C3)C1)C2)NCCc1cccs1` [compound 1570], the inhibition at 10 µM against Human 11β-HSD1 [1] and at Human 11β-HSD1 [2] was above 60% in each case.

Consider `Cc1nc2c(NC(=O)C34CC5CC(CC(C5)C3)C4)c(C)ccc2s1` [compound 1372], for which the inhibition at 10 µM on Human 11β-HSD1 [1] and on Human 11β-HSD1 [2] was 20 to 60% throughout.

Consider `O=C(COc1ccc(Cl)cc1)C12CC3CC(CC(C3)C1)C2` [compound 1610], for which the inhibition at 10 µM against Human 11β-HSD1 [1] and on Human 11β-HSD1 [2] was above 60% in each case.

`O=S(=O)(NC12CC3CC(CC(C3)C1)C2)c1ccc(-c2ccccc2)cc1` [compound 1344]: the inhibition at 10 µM on Human 11β-HSD1 [1] and on Human 11β-HSD1 [2] was 20 to 60% each time.

`O=C(NCc1ccccn1)C12CC3CC(CC(C3)C1)C2` [compound 1540]: the inhibition at 10 µM on Human 11β-HSD1 [1] was above 60%; on Human 11β-HSD1 [2], 20 to 60%.

As to `O=C(C[S+]([O-])Cc1ccc(Cl)cc1)C12CC3CC(CC(C3)C1)C2` (centres unmarked) [compound 1628], the inhibition at 10 µM at Human 11β-HSD1 [1] and on Human 11β-HSD1 [2] was above 60% throughout.

As to `CCCc1ccc(S(=O)(=O)NCC23CC4CC(CC(C4)C2)C3)cc1` [compound 1368], the inhibition at 10 µM against Human 11β-HSD1 [1] was above 60%; at Human 11β-HSD1 [2] it was 20 to 60%.

With `Cc1ccc(SCC(=O)C23CC4CC(CC(C4)C2)C3)cc1` [compound 1537], the inhibition at 10 µM against Human 11β-HSD1 [1] and on Human 11β-HSD1 [2] was above 60% throughout.

Take `O=C(NCCN1CCCCC1)C12CC3CC(CC(C3)C1)C2` [compound 1598]: the inhibition at 10 µM on Human 11β-HSD1 [1] and on Human 11β-HSD1 [2] was above 60% in each case.

For `Cc1ccc(S(=O)(=O)CC(=O)C23CC4CC(CC(C4)C2)C3)cc1` [compound 1562], the inhibition at 10 µM at Human 11β-HSD1 [1] and at Human 11β-HSD1 [2] was above 60% each time.

As to `Cc1nc2cc(NCC(=O)C34CC5CC(CC(C5)C3)C4)ccc2s1` [compound 1487], the inhibition at 10 µM at Human 11β-HSD1 [1] and on Human 11β-HSD1 [2] was above 60% in each case.

`O=S(=O)(Cc1cccc(Cl)c1)NC12CC3CC(CC(C3)C1)C2` [compound 1500]: the inhibition at 10 µM was 20 to 60% on Human 11β-HSD1 [1] and below 20% at Human 11β-HSD1 [2].

Turning to `COc1ccc(NC(=O)C23CC4CC(CC(C4)C2)C3)cn1` [compound 1544], the inhibition at 10 µM is above 60% against Human 11β-HSD1 [1] and 20 to 60% on Human 11β-HSD1 [2].

For the compound `O=C(COc1cc(Cl)ccc1Cl)C12CC3CC(CC(C3)C1)C2` [compound 1618], the inhibition at 10 µM at Human 11β-HSD1 [1] and on Human 11β-HSD1 [2] was above 60% throughout.

Take `O=C(COc1ccc(-c2ccccc2)cc1)C12CC3CC(CC(C3)C1)C2` [compound 1567]: the inhibition at 10 µM on Human 11β-HSD1 [1] and on Human 11β-HSD1 [2] was above 60% throughout.

With `COc1ccc(OCC(=O)C23CC4CC(CC(C4)C2)C3)cc1OC` [compound 1568], the inhibition at 10 µM against Human 11β-HSD1 [1] and at Human 11β-HSD1 [2] was above 60% in each case.

Consider `O=C(NCCc1cccs1)C12CC3CC(CC(C3)C1)C2` [compound 1375], for which the inhibition at 10 µM against Human 11β-HSD1 [1] and on Human 11β-HSD1 [2] was above 60% each time.

For the compound `Clc1ccc(-c2noc(C34CC5CC(CC(C5)C3)C4)n2)cc1` [compound 1627], on Human 11β-HSD1 [1], the inhibition at 10 µM lay within 20 to 60%.

On Human 11β-HSD1 [1], `CN(Cc1cccs1)C(=O)C12CC3CC(CC(C3)C1)C2` [compound 1576] had an inhibition at 10 µM above 60%.
